Measured values as given in patent US7396944B2, “Thiophene derivatives, their manufacture and use as pharmaceutical agents” (Hoffmann-La Roche Inc., priority 2004, dated 2008).

Target: T1, recombinant HDAC-1 (Homo sapiens, UniProt Q13547)
T1 construct: made in house; host or cells: HEK 293 cells (ATCC-No. CRL 1573)
Assay: HDAC biochemical quench assay
Conditions: recombinant HDAC-1 purified from HEK 293 cells, histone H4 peptide substrate 1 μM, 90 min
From the text: The function of histone deacetylase (HDAC) is the deacetylation of lysines in e.g. histone H4. A peptide of 17 amino acids derived from histone H4 was labeled with tetramethylrhodamine (TAMRA, fluorophore, Invitrogen) at the C-terminus and QSY-7™ (quencher dye, Invitrogen) at the N-terminus and was used as a substrate (TAMRA-first 17 aa of histone H4-QSY7). Following deacetylation by HDAC, the enzyme Lys C is able to cleave the peptide after lysine. […] Inhibition of HDAC by compounds results in low signals because Lys C could not cleave the substrate and the quench effect persists.
For dose response curves, 10 concentrations were diluted 1:3 starting at 30 μM. 10 μl compound dilution were put into each well of a 384 well plate. 10 μl HDAC were added (recombinant HDAC-1 purified from HEK 293 cells (human embryonic kidney cell line transformed by Adenovirus 5 fragments, ATCC-No. CRL 1573); enzyme activity has to be assessed for each preparation). 10 μl peptide substrate was added (1 μM final concentration, derived from 1 mM stock solution diluted 1:1000 in test buffer). After 90 min incubation at room temperature, the reaction was stopped by addition of 20 μl test buffer including 3 μg/ml Lys C and 0.075% Sodium Dodecyl Sulfate (SDS). After overnight incubation the fluorescence signal of TAMRA was measured (Victor 2 from Wallac, absorption 544 nm, emission 590 nm). The O.D. of DMSO (dimethylsulfoxide)-treated control wells is 100%, the % inhibition of compound treated wells is calculated in relation to 100%. Based on 10 concentrations an IC50 curve is generated by using XLfit3 (XLfit software (ID Business Solution Ltd., Guilford, Surrey, UK)).
Test buffer used: a mixture of 10 mM 4-(2-hydroxyethyl)-1-piperazineethanesulfonic acid (HEPES) pH8, 10 mM NaCl, 10% Glycerol, 0.005% Triton X100™, 0.1 mM ethylenediaminetetraacetic acid (EDTA), 0.1 mM Tris(2-carboxyethyl)phosphine (TCEP). Used plates: 384 well plates (black, Greiner, 781077).

T1 sequence (Q13547 whole entry, species assumed): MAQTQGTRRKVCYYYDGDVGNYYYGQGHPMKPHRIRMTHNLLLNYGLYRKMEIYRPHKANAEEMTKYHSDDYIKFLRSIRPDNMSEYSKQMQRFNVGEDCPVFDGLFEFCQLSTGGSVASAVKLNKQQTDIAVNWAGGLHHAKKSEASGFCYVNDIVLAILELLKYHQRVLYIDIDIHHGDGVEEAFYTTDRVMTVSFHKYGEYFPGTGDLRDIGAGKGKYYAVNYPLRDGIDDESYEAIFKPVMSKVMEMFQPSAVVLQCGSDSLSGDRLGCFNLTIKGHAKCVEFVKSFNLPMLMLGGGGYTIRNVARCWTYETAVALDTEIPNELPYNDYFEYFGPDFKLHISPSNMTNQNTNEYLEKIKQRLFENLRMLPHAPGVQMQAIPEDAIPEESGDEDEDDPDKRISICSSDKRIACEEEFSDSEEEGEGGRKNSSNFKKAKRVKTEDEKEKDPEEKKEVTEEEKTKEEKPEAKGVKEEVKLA

Row | Compound | IC50
1 | CC(NC(=O)c1ccc(C(=O)NO)s1)c1cccc(-c2cn[nH]c2)c1 (stereo not drawn) [Example 2-18, Thiophene-2,5-dicarboxylic acid 2-hydroxyamide 5-({1-[3-(1H-pyrazol-4-yl)-phenyl]-ethyl}-amide)] | < 3 nM
2 | CC(NC(=O)c1ccc(C(=O)NO)s1)c1ccccc1 (stereo not drawn) [Reference compound, reference compound] | 3.12 nM
3 | CC(NC(=O)c1ccc(C(=O)NO)s1)c1ccc(-c2cccc(F)c2)s1 (stereo not drawn) [Example 3-9, Thiophene-2,5-dicarboxylic acid 2-({1-[5-(3-fluoro-phenyl)-thiophen-2-yl]-ethyl}-amide) 5-hydroxyamide] | 3 to 6 nM
4 | CC(NC(=O)c1ccc(C(=O)NO)s1)c1ccc(-c2ccc(N(C)C)cc2)cc1 (stereo not drawn) [Example 1-2, Thiophene-2,5-dicarboxylic acid 2-{[1-(4′-dimethylamino-biphenyl-4-yl)-ethyl]-amide} 5-hydroxyamide] | 3 to 6 nM
5 | CC(NC(=O)c1ccc(C(=O)NO)s1)c1ccc(-c2ccccc2F)s1 (stereo not drawn) [Example 3-12, Thiophene-2,5-dicarboxylic acid 2-({1-[5-(2-fluoro-phenyl)-thiophen-2-yl]-ethyl}-amide) 5-hydroxyamide] | 4.11 nM
6 | CC(NC(=O)c1ccc(C(=O)NO)s1)c1cccc(-c2ccc(F)cc2)c1 (stereo not drawn) [Example 2-8, Thiophene-2,5-dicarboxylic acid 2-{[1-(4′-fluoro-biphenyl-3-yl)-ethyl]-amide} 5-hydroxyamide] | 2.52 nM
7 | CC(NC(=O)c1ccc(C(=O)NO)s1)c1ccc(N2CCCCC2)cc1 (stereo not drawn) [Example 4-3, Thiophene-2,5-dicarboxylic acid 2-hydroxyamide 5-{[1-(4-piperidin-1-yl-phenyl)-ethyl]-amide}] | < 3 nM
8 | C[C@@H](NC(=O)c1ccc(C(=O)NO)s1)c1ccc(N2CCOCC2)cc1 [Example 4-1, (R)-Thiophene-2,5-dicarboxylic acid 2-hydroxyamide 5-{[1-(4-morpholin-4-yl-phenyl)-ethyl]-amide}] | 3 to 6 nM

System: HT-29 cells (human colon carcinoma cell line)
Assay: MTT assay on HT-29 human colon carcinoma cell line
Type: cell-based
Conditions: Homo sapiens, 120 h, MTT assay after 5 days, read-out: IC90 HT29
Description: To show the activity of the compounds according to this invention, their effects on a human colon carcinoma cell line was evaluated using a standard MTT-assay. MTT (3-(4,5-dimethylthiazol-2-yl)-2,5-diphenyl tetrazolium bromide) is widely used for the quantitative determination of cytotoxic effects or in vitro chemosensitivity of tumor cells. The assay is based on the cleavage of the yellow tetrazolium salt (MTT) to purple formazan crystals by metabolic active cells. For details, see Rubinstein, L. V., et al., J. Natl. Cancer Inst. 82 (1990) 1113-1118.
We proceeded as follows: HT-29 cells (human colon carcinoma cell line, ATCC-No. HTB-38) were cultivated in RPMI 1640 medium with GlutaMAX™ I (Invitrogen, Cat-No. 61870-010), 2.5% fetal calf serum (FCS, Sigma Cat-No. F4135 (FBS)), 2 mM glutamine, 100 units/ml penicillin, 100 μg/ml streptomycin (=Pen/Strep from Invitrogen Cat. No. 15140). For the assay the cells were seeded in 384 well plates, 900 cells per well, in the same medium. At the next day, the compounds (dissolved 10 mM in DMSO) were added in various concentrations ranging from 30 μM to 1.5 nM. After 5 days, the MTT assay was done mainly according to the instructions of the manufacturer (Cell proliferation kit I, MTT, from Roche Molecular Biochemicals). In brief: MTT labeling reagent was added to a final concentration of 0.5 mg/ml, added and incubated for 4 hrs at 37° C., 5% CO2. During this incubation time purple formazan crystals are formed. After addition of the solubilization solution (20% Sodium Dodecyl Sulfate (SDS) in 0.02 M HCl) the plates were incubated overnight at 37° C., 5% CO2. After careful mixing, the plates were measured in Victor 2 (scanning multiwell spectrophotometer, Wallac) at 550 nm.
A decrease in number of living cells results in a decrease in the total metabolic activity in the sample. The decrease directly correlates to the amount of purple colour resulting from the solubilization of the purple formazan crystals. Determination of IC90 was done using XL-fit (XLfit software (ID Business Solution Ltd., Guilford, Surrey, UK)).

Row | Compound | IC90
9 | CC(NC(=O)c1ccc(C(=O)NO)s1)c1ccccc1 (stereo not drawn) [Reference compound, reference compound] | 1120 nM
10 | CC(NC(=O)c1ccc(C(=O)NO)s1)c1cccc(-c2ccc(F)cc2)c1 (stereo not drawn) [Example 2-8, Thiophene-2,5-dicarboxylic acid 2-{[1-(4′-fluoro-biphenyl-3-yl)-ethyl]-amide} 5-hydroxyamide] | 100 to 500 nM

Same assay, conditions: MTT assay after 5 days, read-out: IC90 HT29

Row | Compound | IC90
11 | COc1ccccc1-c1ccc(C(C)NC(=O)c2ccc(C(=O)NO)s2)s1 (stereo not drawn) [Example 3-1, Thiophene-2,5-dicarboxylic acid 2-hydroxyamide 5-({1-[5-(2-methoxy-phenyl)-thiophen-2-yl]-ethyl}-amide)] | 110 nM
12 | CC(NC(=O)c1ccc(C(=O)NO)s1)c1cccc(-c2cc3ccccc3s2)c1 (stereo not drawn) [Example 2-14, Thiophene-2,5-dicarboxylic acid 2-{[1-(3-benzo[b]thiophen-2-yl-phenyl)-ethyl]-amide} 5-hydroxyamide] | 70 nM
